Assay type in all cases: cell-based
One assay deals with T1, GluD2-A654D (Rattus norvegicus, UniProt Q63226, A654D).
T1 construct: expressed in transfected cells; host or cells: Xenopus laevis oocytes injected with cRNA
T1 sequence (Q63226 24-1007 A654D): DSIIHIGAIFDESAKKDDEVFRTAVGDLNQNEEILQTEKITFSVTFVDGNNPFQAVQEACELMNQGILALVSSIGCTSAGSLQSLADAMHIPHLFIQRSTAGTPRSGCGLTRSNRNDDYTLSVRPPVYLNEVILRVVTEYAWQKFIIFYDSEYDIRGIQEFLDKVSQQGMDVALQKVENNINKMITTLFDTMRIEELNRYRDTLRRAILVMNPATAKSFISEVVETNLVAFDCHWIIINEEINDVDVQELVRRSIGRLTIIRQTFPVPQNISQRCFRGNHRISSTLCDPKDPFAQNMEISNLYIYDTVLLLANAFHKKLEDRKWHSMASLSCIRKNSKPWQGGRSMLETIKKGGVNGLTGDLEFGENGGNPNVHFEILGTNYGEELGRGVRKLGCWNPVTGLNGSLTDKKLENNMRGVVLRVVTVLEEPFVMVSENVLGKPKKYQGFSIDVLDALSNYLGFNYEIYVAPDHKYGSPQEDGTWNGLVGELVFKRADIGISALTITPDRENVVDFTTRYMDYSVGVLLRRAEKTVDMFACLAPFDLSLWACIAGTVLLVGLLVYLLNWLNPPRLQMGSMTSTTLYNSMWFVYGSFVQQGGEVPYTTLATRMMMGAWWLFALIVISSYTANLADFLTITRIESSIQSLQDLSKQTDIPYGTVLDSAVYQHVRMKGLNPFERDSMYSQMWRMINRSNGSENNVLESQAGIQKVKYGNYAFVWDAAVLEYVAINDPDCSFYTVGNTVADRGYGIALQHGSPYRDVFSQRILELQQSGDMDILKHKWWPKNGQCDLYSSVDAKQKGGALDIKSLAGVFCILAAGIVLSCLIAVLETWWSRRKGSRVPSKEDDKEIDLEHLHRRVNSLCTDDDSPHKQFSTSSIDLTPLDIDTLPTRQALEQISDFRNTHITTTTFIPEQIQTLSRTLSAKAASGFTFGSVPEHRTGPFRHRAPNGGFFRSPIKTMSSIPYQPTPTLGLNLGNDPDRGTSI
The assay is described as follows: TEVC of constitutive current, Xenopus oocytes expressing GluD2-A654D.

A further assay has as its target T2, GluD1-A650T (Homo sapiens, UniProt Q9ULK0, A650T).
T2 construct: expressed in transfected cells; host or cells: Xenopus laevis oocytes injected with cRNA
T2 sequence (Q9ULK0 21-1009 A650T): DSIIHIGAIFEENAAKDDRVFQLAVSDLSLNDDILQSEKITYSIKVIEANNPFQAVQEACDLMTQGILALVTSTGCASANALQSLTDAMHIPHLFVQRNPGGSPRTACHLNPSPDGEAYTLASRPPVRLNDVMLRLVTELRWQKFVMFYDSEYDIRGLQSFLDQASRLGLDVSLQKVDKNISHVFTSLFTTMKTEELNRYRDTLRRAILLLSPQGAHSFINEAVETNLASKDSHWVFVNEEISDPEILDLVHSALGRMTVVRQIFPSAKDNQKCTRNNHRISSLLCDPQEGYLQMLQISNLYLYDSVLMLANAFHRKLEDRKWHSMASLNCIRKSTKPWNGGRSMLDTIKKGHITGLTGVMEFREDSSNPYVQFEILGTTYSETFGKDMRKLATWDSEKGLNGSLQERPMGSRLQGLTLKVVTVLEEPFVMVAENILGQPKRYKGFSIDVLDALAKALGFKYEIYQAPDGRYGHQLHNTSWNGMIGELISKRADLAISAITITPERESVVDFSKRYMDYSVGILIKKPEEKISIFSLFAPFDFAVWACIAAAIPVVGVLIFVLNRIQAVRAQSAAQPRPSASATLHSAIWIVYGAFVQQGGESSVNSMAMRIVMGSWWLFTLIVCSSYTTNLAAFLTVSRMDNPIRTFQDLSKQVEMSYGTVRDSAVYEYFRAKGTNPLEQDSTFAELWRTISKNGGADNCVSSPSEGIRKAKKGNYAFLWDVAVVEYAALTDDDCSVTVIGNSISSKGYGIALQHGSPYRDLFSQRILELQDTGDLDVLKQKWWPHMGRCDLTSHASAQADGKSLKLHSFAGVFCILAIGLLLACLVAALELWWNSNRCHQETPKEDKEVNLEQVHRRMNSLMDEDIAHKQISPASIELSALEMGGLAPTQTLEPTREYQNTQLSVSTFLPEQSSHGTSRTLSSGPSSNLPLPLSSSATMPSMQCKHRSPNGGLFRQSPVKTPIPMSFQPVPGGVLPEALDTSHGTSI
The experiment in a line: TEVC of constitutive current, Xenopus oocytes expressing GluD1-A650T. The note with it: for EC50: modulation of constitutive current.

In a further assay the target is T3, GluD2-A654T (Rattus norvegicus, UniProt Q63226, A654T).
T3 construct: expressed in transfected cells; host or cells: Xenopus laevis oocytes injected with cRNA
T3 sequence (Q63226 24-1007 A654T): T1 sequence (Q63226 24-1007 A654D) with D631T
The assay is described as follows: TEVC of constitutive current, Xenopus oocytes expressing GluD2-A654T (lurcher).

The mark [1] stands for this setting: inhibition of constitutive current, read-out: Memantine IC50.
Setting [2] is: 100 μM pentamidine, positive = increase, negative = decrease of activity.
Setting [3] is: normalized to NMDG+ − Na+ difference current.
The mark [4] stands for this setting: 10 mM D-serine, positive = increase, negative = decrease of activity.
Where [5] appears, read: percent of constitutive leak current (NMDG+/Na+ difference current).

Substitutions are numbered along the chain they refer to. “Also recorded” adds a separate entry of the source. Like-named read-outs stand apart in the source and are kept apart here.

Consider `CC12CC3CC(C)(C1)CC(N)(C3)C2` [Memantine, memantine], for which the figures for the IC50 at GluD2-A654D (setting [1]), on GluD1-A650T (setting [1]) and at GluD2-A654T (setting [1]) were 55 µM, > 300 µM and 89 µM, respectively.

On to `N=C(N)c1ccc(OCCCCCOc2ccc(C(=N)N)cc2)cc1` [Pentamidine, pentamidine], for which the “Pentamidine effect (Baseline −100 μM Pentamidine)” value on GluD2-A654D (setting [2]) is −700 ± 160 (14) nA; at GluD1-A650T (setting [2]), −1090 ± 200 (12) nA; at GluD2-A654T (setting [2]), −930 ± 130 (14) nA. Besides, the IC50 at GluD2-A654D (read-out: Pentamidine IC50) is 3.7 µM; on GluD1-A650T (read-out: Pentamidine IC50), 20 µM; at GluD2-A654T (read-out: Pentamidine IC50), 9.6 µM.

With `[Ca+2]` [Ca^2+], the “Effect on constitutive current, in words” value at GluD2-A654D is “weak inhibitor; also recorded: modestly inhibited”; at GluD1-A650T, “modestly inhibited”. The EC50 on GluD2-A654D (modulation of constitutive current, inhibited by Ca2+ (not potentiated), read-out: Ca2+ EC50 [95% CI]) amounted to 170 µM; at GluD1-A650T (inhibited by Ca2+ (not potentiated), read-out: Ca2+ EC50 [95% CI]), 290 µM; on GluD2-A654T (potentiation of constitutive current, read-out: Ca2+ EC50 [95% CI]), 150 µM. Moreover, the “Ca2+ % Max (NMDG+ − Na+) Mean ± SEM” value is 82 ± 10 (12) % on GluD2-A654D (setting [3]), 65 ± 3 (10) % at GluD1-A650T (setting [3]) and 299 ± 5.8 (32) % on GluD2-A654T (setting [3]). Further, the “Ca2+ EC50 A654T/EC50 variant” value turned out to be 0.88 on GluD2-A654D (ratio) and 1.0 on GluD2-A654T (ratio). Also, at GluD2-A654T (Hill fit, Fig. S7A), the “Ca2+ EC50 of the relation Ca2+ concentration vs D-serine IC50” value is 590 µM. Also, the “Hill slope of the relation Ca2+ concentration vs D-serine IC50” value at GluD2-A654T (Hill fit, Fig. S7A) is listed as 1.1.

As for `N[C@H](CO)C(=O)O` [D-serine], the “Effect on constitutive current, in words” value on GluD2-A654D is on record as “little effect; also recorded: near complete loss of D-serine potency”; at GluD1-A650T, “modestly potentiated; also recorded: slightly potentiated”. Further, the figures for the “D-Serine effect (Baseline −10 mM D-Serine)” value on GluD2-A654D (setting [4]), at GluD1-A650T (setting [4]) and on GluD2-A654T (setting [4]) were −29 ± 10 (14) nA, 810 ± 130 (12) nA and −1000 ± 130 (14) nA, respectively. Besides, the “D-serine % Max (NMDG+ − Na+) Mean ± SEM” value at GluD2-A654D (setting [5]) is reported as 85 ± 2.6 (15) %; at GluD1-A650T (setting [5]), 120 ± 1.8 (11) %; on GluD2-A654T (setting [5]), 51 ± 1.3 (32) %. Besides, the EC50 at GluD1-A650T (read-out: D-serine EC50 [95% CI], potentiated by D-serine (not inhibited)) was found to be 130 µM. In addition, the “D-serine Hill slope” value on GluD2-A654T (1 mM Ca2+, Fig. S7B) is on record as 2.5. On GluD2-A654T (1 mM Ca2+, Fig. S7B), the “D-serine Maximum” value is recorded as 73%. The “Reduction of maximum possible activity (Na+ −NMDG+ difference current) by D-serine” value at GluD2-A654T (10 mM D-serine) is ~ 50%.
